{"source": "patent US20080095868A1", "about": "“Use of fermented wheat-germ in the feeding and veterinary practice” (priority 2002, published 2008)", "test_system": "M. gallisepticum No 1226", "test": "effect against Mycoplasma gallisepticum infection in chickens (Example 6)", "assay_type": "in vivo, Mycoplasma gallisepticum; Arbor Acress chickens", "protocol": "The investigations were performed with Arbor Acress chickens of meat type free of M. synoviae infection. The freedom from Mycoplasma synoviae of the animals was verified with systematic serological screening examination in an agglutination test by the help of M. gallisepticum and M. synoviae antigens (Intervet International B.V.M.; Boxmeer, The Netherlands). Furthermore, the animals were tested in an ELISA-test based on monoclonal antibodies and with the use of MYGA test-kit (Diagnosztikum Kft; Budapest, Hungary) and MYSA kit (Svanova, Uppsala, Sweden) [Czifra, Gy. et al.: Avian Dis. 37, 680-688 (1993)]. The serological examinations gave negative results. Furthermore, from the same hatching from which the experimental animals derived, isolation of Mycoplasma was tried from the nasal cavity, trachea and air pocket of 20 1 day old chicks using medium B [Erno H., and Stipkovits, L.: Acta Vet. Scand. 14, 436-449 (1973)] and Frey's media [Frey, M. C. et al.: Am. J. Vet. Res. 29, 2164-2171 (1968)]. This cultivation closed with a negative result, too.\nFor the infection of the experimental animals M. gallisepticum N^o 1226 was employed which had been previously amplified in medium B for 24 hours. The germ content was 9.5×10^8 pfu/ml (pfu=plaque forming unit).\nThe experimental groups were treated and infected as follows:\nGroup 1. was located in a 200 litre box which can be fastened down hermetically, into which 10 ml sterile medium B was sprayed, then the animals were kept in this box for 20 minutes.\nGroup 3. was infected in identical manner as Group 2., then after location in a third room the animals were fed with a chick breeding nutriment containing VET-HBM in 3 g/kg concentration in the course of the experiment.\nGroup 4. was infected in identical manner as Group 2., then after location in a fourth room the animals were fed with a nutriment containing 200 mg/kg tiamutin (Biochemie GmbH, Kundl, Austria) in the course of the experiment.\nTo the judgment of the effectiveness of the treatment the following parameters were investigated: clinical symptoms, changes in body weight, feed conversion ratio; in addition to them pathological, histological and serological examinations as well as Mycoplasma re-isolation were performed. In the course of their evaluation the following result were obtained.\nAt the end of the experiment all the animals were examined by pathological dissection to air-pocket- and peritoneum inflammation characteristic of the M. gallisepticum infection.\nThe blood plasma of all the chickens was investigated on slide in a M. gallisepticum agglutination test. The severity of the reaction was scored, and the number of respondent animals and the sum of the scores were compared in a Chie square test. The Group 1. remained negative till the end of the experiment. […] (75 scores).\nThe re-isolation of the infectious Mycoplasma strain was performed as follows. Following of the infection after 1 hour 5-5 animals were killed. 1-1 cm long pieces of trachea were placed into 2 ml liquid medium B, and after 3 minutes of shaking germ counting were performed in the medium. At the end of the experiment re-isolation of the strain used for infection was attempted from the respiratory organs (trachea, lung, air-pocket) and other organs (brain, liver, spleen, kidney, heart) of all the chickens in that manner that samples were carried from every abovementioned organ to solid medium B by the help of a tampon. The agar slants were cultivated for 10 days then they were evaluated. A portion of the isolates was identified with an epifluorescent method using a specific immune serum."}
{"smiles": "C=C[C@]1(C)C[C@@H](OC(=O)CSCCN(CC)CC)[C@]2(C)[C@H](C)CC[C@]3(CCC(=O)[C@H]32)[C@@H](C)[C@@H]1O", "note": "[tiamutin]", "values": [{"measurement": "number of animals exhibiting serological response, M. gallisepticum agglutination test", "setting": "30 animals per group, non-treated Group 2: 25, VET-HBM 3 g/kg, tiamutin 200 mg/kg", "value": 8}, {"measurement": "Mycoplasma re-isolation, number of occasions", "setting": "end of the experiment, Group 2: 64 instances, VET-HBM 3 g/kg, tiamutin 200 mg/kg", "value": 3}, {"measurement": "clinical symptoms", "setting": "infected chickens, Group 3 VET-HBM 3 g/kg, Group 4 tiamutin 200 mg/kg in nutriment", "value": "no any clinical symptoms"}, {"measurement": "gain in body weight", "setting": "infected chickens, VET-HBM 3 g/kg, tiamutin 200 mg/kg in nutriment", "value": "of same degree as in the control group"}, {"measurement": "feed conversion ratio", "setting": "infected chickens, VET-HBM 3 g/kg, tiamutin 200 mg/kg, versus control group", "value": "remained at the same level"}, {"measurement": "sum of the scores of the serological reaction", "setting": "non-treated Group 2: 75 scores, VET-HBM 3 g/kg, tiamutin 200 mg/kg", "value": 11}, {"measurement": "pathological alterations (air-pocket- and peritoneum inflammation)", "setting": "versus infected non-treated Group 2, VET-HBM 3 g/kg, tiamutin 200 mg/kg", "value": "developed significantly more scarcely"}, {"measurement": "histological parameters (lymphohystiocytic bronchitis, lobular interstitial pneumoniae)", "setting": "versus non-infected Group 1, VET-HBM 3 g/kg, tiamutin 200 mg/kg", "value": "remained on the same level as in the Group 1."}]}
